Laboratory results: US20220204493A1, “CRYSTALLINE FORM OF A BET-INHIBITOR AND MANUFACTURE THEREOF” (ORION CORPORATION, priority 2019, published 2022)

Assays:
[1] = Relative stability study between crystalline form 1 and 2 (storage at stressed conditions, XRPD at time points); type: physicochemical
Experimental: The XRPD pattern of the crystalline form 1 of compound (I) was measured using a PANalytical X'Celerator θ-θ diffractometer with CuKα radiation (40 kV, 30 mA). The diffractometer was operated in reflection mode. The measurements were performed in the range of 3°-40° 2θ. 100-300 mg of the sample powder was placed in the sample holder and the surface was pressed. For comparison purposes, the XRPD pattern of an unmilled sample of crystalline form 1 and the XRPD pattern of a milled sample of crystalline form 1 are shown together in FIG. 3.
The XRPD pattern of the amorphic form and the crystalline form 2 of compound (I) were measured as above except that a small sample amounts (approximately 5-10 mg) were first placed in the centre of a zero-background sample holder and then gently spread to a thin layer.
(§1) Four samples of compound (I) in crystalline form 2 (with traces of form 1) prepared according to Example 10 were stored at stressed conditions. XRPD of each sample was recorded at initial time point and at further time points. Moreover, long term stability of crystalline form 1 of compound (I) at different storage conditions was studied.

[2] = Hygroscopicity of crystalline form 1; type: physicochemical
[3] = Long-term stability of crystalline form 1 at different storage conditions (XRPD); type: physicochemical
Experimental: as §1

SMILES: COc1cc2c(cc1-c1c(C)noc1C)cc(C)c(=O)n2Cc1ccccn1 [crystalline form 2, 6-(3,5-dimethylisoxazol-4-yl)-7-methoxy-3-methyl-1-(pyridin-2-ylmethyl)quinolin-2(1H)-one]
- Crystalline form found by XRPD ([1]; 25 °C/RH 60 %, 2 weeks): II +
- Crystalline form found by XRPD ([1]; 25 °C/RH 60 %, 4 weeks): II +
- Crystalline form found by XRPD ([1]; 25 °C/RH 60 %, 12 weeks): II +
- Crystalline form found by XRPD ([1]; 25 °C/RH 60 %, 24 weeks): I +
- Crystalline form found by XRPD ([1]; 25 °C/RH 60 %, initial): II +
- Crystalline form found by XRPD ([1]; 30 °C/RH 65 %, 2 weeks): II +
- Crystalline form found by XRPD ([1]; 30 °C/RH 65 %, 4 weeks): II +
- Crystalline form found by XRPD ([1]; 30 °C/RH 65 %, 12 weeks): II +
- Crystalline form found by XRPD ([1]; 30 °C/RH 65 %, 24 weeks): I +
- Crystalline form found by XRPD ([1]; 30 °C/RH 65 %, initial): II +
- Crystalline form found by XRPD ([1]; 40 °C/RH 75 %, 2 weeks): II +
- Crystalline form found by XRPD ([1]; 40 °C/RH 75 %, 4 weeks): II +
- Crystalline form found by XRPD ([1]; 40 °C/RH 75 %, initial): II +
- Crystalline form found by XRPD ([1]; RT/RH 5 %, initial): II +
- Time for transformation of form 2 to form 1 ([1]; all studied conditions): ≤ 36 weeks

SMILES: COc1cc2c(cc1-c1c(C)noc1C)cc(C)c(=O)n2Cc1ccccn1 [amorphous compound (I), 6-(3,5-Dimethylisoxazol-4-yl)-7-methoxy-3-methyl-1-(pyridin-2-ylmethyl)quinolin-2(1H)-one]
- melting point: 180 °C

SMILES: COc1cc2c(cc1-c1c(C)noc1C)cc(C)c(=O)n2Cc1ccccn1 [Crystalline form 1, 6-(3,5-dimethylisoxazol-4-yl)-7-methoxy-3-methyl-1-(pyridin-2-ylmethyl)quinolin-2(1H)-one]
- Relative stability of the crystalline forms ([1]; all studied conditions): more stable than form 2
- Hygroscopicity [2]: low hygroscopicity
- Physical stability [3]: physically stable
- Long-term stability, changes by XRPD ([3]; 25° C./RH 60 % and 40° C./RH 75 %): no changes were observed
- Long-term stability (stable up to; no changes by XRPD) ([3]; storage 25° C./RH 60 %): Stable up to 24 months
- Long-term stability (stable up to; no changes by XRPD) ([3]; storage 40° C./RH 75 %): Stable up to 6 months
